These results are taken from US8715529B1, “Synthesis and applications of triazaborolopyridinium compounds and substituted triazaborolopyridinium compounds and methods of use” (Arrowhead Center, Inc., priority 2012, dated 2014).

For one data set, the system named is HeLa cells. As to the kind of experiment: Live imaging of HeLa cells treated with MSTLC probes. In kind it is cell-based. The following applies: mitotic HeLa cells.
For data set [1], the target named is T1, human kinesin Eg5 motor protein (Homo sapiens, UniProt P52732).
T1 construct: endogenous in cells; host or cells: HeLa cells
T1 sequence (P52732 1-1056): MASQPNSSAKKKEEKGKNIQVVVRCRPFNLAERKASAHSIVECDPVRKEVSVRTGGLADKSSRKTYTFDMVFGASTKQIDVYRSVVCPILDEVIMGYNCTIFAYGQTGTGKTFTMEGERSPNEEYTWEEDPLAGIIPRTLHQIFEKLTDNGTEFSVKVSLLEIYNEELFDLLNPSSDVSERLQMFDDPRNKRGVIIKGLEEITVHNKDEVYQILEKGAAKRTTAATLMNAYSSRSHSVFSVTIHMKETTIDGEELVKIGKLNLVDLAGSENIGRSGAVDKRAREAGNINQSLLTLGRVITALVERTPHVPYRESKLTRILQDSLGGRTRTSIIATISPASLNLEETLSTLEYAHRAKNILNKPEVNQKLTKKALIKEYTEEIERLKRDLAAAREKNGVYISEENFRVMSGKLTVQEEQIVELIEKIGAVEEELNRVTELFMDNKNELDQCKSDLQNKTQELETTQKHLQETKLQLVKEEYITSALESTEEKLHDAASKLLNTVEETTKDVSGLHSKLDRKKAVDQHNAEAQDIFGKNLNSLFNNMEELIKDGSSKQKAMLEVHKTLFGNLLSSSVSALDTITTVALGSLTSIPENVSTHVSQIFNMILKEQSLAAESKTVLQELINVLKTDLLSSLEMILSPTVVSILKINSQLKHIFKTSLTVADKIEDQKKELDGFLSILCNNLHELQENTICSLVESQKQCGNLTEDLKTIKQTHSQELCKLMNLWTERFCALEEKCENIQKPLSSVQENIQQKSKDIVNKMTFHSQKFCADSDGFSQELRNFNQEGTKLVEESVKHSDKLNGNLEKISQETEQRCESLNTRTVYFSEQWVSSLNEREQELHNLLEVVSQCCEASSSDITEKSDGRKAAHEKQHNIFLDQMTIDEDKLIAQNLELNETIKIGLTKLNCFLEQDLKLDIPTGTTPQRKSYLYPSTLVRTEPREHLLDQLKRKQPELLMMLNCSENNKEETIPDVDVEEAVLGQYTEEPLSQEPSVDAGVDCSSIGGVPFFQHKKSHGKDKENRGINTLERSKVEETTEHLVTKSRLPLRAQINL
Kind of data set: Monopolar spindle formation in HeLa cells treated with MSTLC probes (fixed, tubulin/DNA staining). Format: cell-based. The following applies: read-out: EC50, monopolar spindles / block of bipolar spindle. The method, then:
The inhibitory activity of human kinesin Eg5 motor protein was tested using probes 3.3, 3.5 and 413. HeLa cells were treated with 10 μM of each probe, as well as the unconjugated inhibitor Methoxy-S-Trityl-L-cysteine. Then cells were incubated with anti-α tubulin 1:1000 primary antibody, AlexaFluor-546 conjugated rabbit anti-mouse secondary antibody and Hoechst 33342 for staining microtubules and DNA respectively. Cells were subsequently washed and mounted onto glass sides with 90% glycerol and imaged using a Zeiss Axiovert 200M inverted microscope outfitted with epifluorescence optics, and a Zeiss Apotome structured illumination module.

The next data set relates to phospho-ERK. As to the kind of experiment: Immunoblot of phospho-ERK accumulation in MCF7 cells. In kind it is cell-based. The following applies: 10 nM, about 15 minutes. The method, then:
FIG. 9 illustrates that E2-HPY(530) treatment leads to the accumulation of phospho-ERK in MCF7 breast cancer cells. […] After about a 15 minute treatment, protein lysates were isolated for immunoblot analysis. The upper panel of […] was probed with pERK1/2 mAb (1:600, Santa Cruz Biotechnology) overnight at about 4° C. Lower panel was obtained after stripping the membrane and probing (1:3000) with Actin mAb overnight at about 4° C. Primary antibodies were visualized with horseradish peroxidase conjugated secondary antibodies.
FIG. 9 illustrates that E2-HPY(530) treatment leads to the accumulation of phospho-ERK in MCF7 breast cancer cells. […] Primary antibody raised against P-ERK was used to visualize p-ERK levels. Actin expression determined by Actin specific mAb was used as a loading control.
(In general: Immunoblotting shows a protein as a band on a membrane.)

Data set [2] concerns estrogen receptor (ER)-dependent promoter. As to the kind of experiment: Invitrogen SelectScreen Profiling Service, ER-mediated transcription. In kind it is cell-based. The following applies: read-out: ED50, ER-mediated transcription.
The nature of data set [3]: Octanol/water partition coefficient (Log Po/w). In kind it is physicochemical.

pEC50: −log10 of the molar value.

`COc1ccc(C(SC[C@H](N)C(=O)NCCC#CC2=CN3C(=N[N+](=C(C)C)[B-]3(F)F)C=C2)(c2ccccc2)c2ccccc2)cc1` [3.3]: the spindle phenotype entry with HeLa cells was “formed monopolar spindles”. The pEC50 in data set [1] is ~5.95.

Take `COc1ccc(C(SC[C@H](N)C(=O)NCCC#CC2=CN3C(=N[N+](=C(C)C)[B-]3(OC)OC)C=C2)(c2ccccc2)c2ccccc2)cc1` [3.5]: in the data set with HeLa cells, the spindle phenotype result is “formed monopolar spindles”. Also, the pEC50 in data set [1] was ~5.99.

Regarding `C[C@]12CC[C@@H]3c4ccc(O)cc4CC[C@H]3[C@@H]1CC[C@@H]2O` [E2, 17-β-estradiol], the “accumulation of phospho-ERK” value in the data set on phospho-ERK is “resulted in the accumulation of phospho-ERK”. Also, the pEC50 in data set [2] is 9.96.

`F[B-]1(F)N2C=C(I)C=CC2=N[N+]1=C1c2ccccc2-c2ccccc21` [HPY(530)-Iodide, 2-(9H-fluoren-9-ylidene)-3,3-difluoro-6-iodo-2,3-dihydro-[1,2,4,3]triazaborolo[4,5-a]pyridin-2-ium-3-uide] had a logP in data set [3] of 0.79.

For orientation: logP means the decadic logarithm of the partition coefficient of the neutral form, usually between octanol and water. Read a high logP as a more lipophilic compound.
